Test results as given in patent US11826351B2, “Compounds useful as kinase inhibitors” (Loxo Oncology, Inc., priority 2015, dated 2023).
Like-named read-outs stand apart in the source and are kept apart here.

What was measured:
[1] = target: T1, Recombinant BTK^WT kinase (Homo sapiens, UniProt Q06187); assay: BTK WT binding affinity (LanthaScreen TR-FRET); conditions: Kinase Tracer 236, 5 h incubation
T1 construct: purchased Invitrogen
Description: BTK^WT binding affinity of each compound tested was determined using a time-resolved fluorescence resonance energy transfer (TR-FRET) methodology. 2.5 nM Recombinant BTK^WT kinase, varying concentrations of inhibitor, 2 nM LanthaScreen™ Eu anti-His Antibody and 15 nM Kinase Tracer 236 was incubated in 1× LanthaScreen™ Kinase Buffer A for 5 h. Recombinant BTK kinase and all LanthaScreen™ components were purchased from Invitrogen. Measurements were performed in a reaction volume of 30 μL using half-area 96-well assay plates. The TR-FRET signal was read on a plate reader with an excitation wavelength of 340 nm and detection wavelengths of 615 and 665 nm. Binding affinity was determined for each compound by measuring TR-FRET signal at various concentrations of compound and plotting the relative fluorescence units against the inhibitor concentration to estimate the IC50 from log[Inhibitor] vs response using the Variable Slope model in Graphpad prism from Graphpad software (San Diego, Calif.).

[2] = target: T2, Recombinant BTK^C481S kinase (Homo sapiens, UniProt Q06187, C481S); assay: BTK C481S binding affinity (LanthaScreen TR-FRET); conditions: Kinase Tracer 236, 5 h incubation
T2 construct: purchased SignalChem
T2 sequence (Q06187 whole entry C481S): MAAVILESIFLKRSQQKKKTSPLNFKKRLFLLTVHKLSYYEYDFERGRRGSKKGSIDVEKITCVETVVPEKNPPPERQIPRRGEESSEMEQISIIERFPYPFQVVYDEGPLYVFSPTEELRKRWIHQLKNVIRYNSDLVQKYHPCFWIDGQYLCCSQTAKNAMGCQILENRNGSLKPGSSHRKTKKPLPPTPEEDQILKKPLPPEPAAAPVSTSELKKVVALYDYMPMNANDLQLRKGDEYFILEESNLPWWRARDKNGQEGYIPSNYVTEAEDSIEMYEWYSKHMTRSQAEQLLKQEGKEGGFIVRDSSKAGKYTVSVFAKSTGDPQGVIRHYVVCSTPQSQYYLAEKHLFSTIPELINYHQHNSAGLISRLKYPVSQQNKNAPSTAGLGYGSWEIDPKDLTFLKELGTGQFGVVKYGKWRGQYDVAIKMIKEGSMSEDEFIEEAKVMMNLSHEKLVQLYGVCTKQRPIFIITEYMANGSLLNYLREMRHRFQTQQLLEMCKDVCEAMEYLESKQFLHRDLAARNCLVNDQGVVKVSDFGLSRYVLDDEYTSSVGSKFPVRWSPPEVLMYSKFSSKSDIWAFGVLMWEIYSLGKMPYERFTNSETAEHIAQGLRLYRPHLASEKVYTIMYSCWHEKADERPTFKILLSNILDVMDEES
Description: BTK^C481S binding affinity of each compound tested was determined using a time-resolved fluorescence resonance energy transfer (TR-FRET) methodology. 5 nM Recombinant BTK^WT kinase, varying concentrations of inhibitor, 2 nM LanthaScreen™ Eu anti-His Antibody and 30 nM Kinase Tracer 236 was incubated in 1× LanthaScreen™ Kinase Buffer A for 5 h. Recombinant BTK^C481S kinase was purchased from SignalChem and all LanthaScreen™ components were purchased from Invitrogen. Measurements were performed in a reaction volume of 30 μL using half-area 96-well assay plates. The TR-FRET signal was read on a plate reader with an excitation wavelength of 340 nm and detection wavelengths of 615 and 665 nm. Binding affinity was determined for each compound by measuring TR-FRET signal at various concentrations of compound and plotting the relative fluorescence units against the inhibitor concentration to estimate the IC50 from log[Inhibitor] vs response using the Variable Slope model in Graphpad prism from Graphpad software (San Diego, Calif.).

Recombinant EGFR = target: T3, Recombinant EGFR (Homo sapiens, UniProt P00533); assay: EGFR binding affinity (LanthaScreen TR-FRET); conditions: Kinase Tracer 199, 5 h incubation
T3 construct: purchased Invitrogen
T3 sequence (P00533 25-1210): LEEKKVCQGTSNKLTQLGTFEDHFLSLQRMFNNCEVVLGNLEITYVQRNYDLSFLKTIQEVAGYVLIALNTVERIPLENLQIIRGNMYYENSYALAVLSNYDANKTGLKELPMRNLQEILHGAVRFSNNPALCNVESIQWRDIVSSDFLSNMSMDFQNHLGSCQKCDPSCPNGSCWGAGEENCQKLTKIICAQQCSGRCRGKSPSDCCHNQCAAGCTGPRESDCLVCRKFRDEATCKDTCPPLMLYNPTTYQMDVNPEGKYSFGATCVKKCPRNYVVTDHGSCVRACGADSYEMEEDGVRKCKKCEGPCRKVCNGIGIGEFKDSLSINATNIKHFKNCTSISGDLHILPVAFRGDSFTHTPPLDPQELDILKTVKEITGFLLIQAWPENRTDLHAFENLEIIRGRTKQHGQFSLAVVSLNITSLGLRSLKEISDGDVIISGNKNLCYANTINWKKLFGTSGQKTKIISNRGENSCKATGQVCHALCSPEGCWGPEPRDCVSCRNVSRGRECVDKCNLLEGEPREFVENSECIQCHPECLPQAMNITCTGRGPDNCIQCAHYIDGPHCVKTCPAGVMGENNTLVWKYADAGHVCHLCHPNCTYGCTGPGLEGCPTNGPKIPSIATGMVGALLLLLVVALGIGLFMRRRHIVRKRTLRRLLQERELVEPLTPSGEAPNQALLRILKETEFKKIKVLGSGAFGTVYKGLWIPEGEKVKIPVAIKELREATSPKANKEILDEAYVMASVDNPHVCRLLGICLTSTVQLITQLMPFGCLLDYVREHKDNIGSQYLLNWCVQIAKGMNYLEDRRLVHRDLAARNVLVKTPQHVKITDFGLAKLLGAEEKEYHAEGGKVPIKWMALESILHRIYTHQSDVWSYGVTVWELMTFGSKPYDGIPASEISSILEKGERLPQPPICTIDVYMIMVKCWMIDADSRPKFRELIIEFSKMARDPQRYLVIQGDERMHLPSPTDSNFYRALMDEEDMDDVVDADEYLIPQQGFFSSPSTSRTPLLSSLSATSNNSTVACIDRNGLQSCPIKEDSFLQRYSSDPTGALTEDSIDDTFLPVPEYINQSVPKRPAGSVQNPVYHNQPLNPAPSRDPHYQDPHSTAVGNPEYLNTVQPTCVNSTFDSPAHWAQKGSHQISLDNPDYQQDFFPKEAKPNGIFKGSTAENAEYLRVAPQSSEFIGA
Description: EGFR binding affinity was determined using a time-resolved fluorescence resonance energy transfer (TR-FRET) methodology. […] Recombinant EGFR and all LanthaScreen™ components were purchased from Invitrogen. Measurements were performed in a reaction volume of 30 μL using half-area 96-well assay plates. […] Binding affinity was determined for each compound by measuring TR-FRET signal at various concentrations of compound and plotting the relative fluorescence units against the inhibitor concentration to estimate the IC50 from log[Inhibitor] vs response using the Variable Slope model in Graphpad prism from Graphpad software (San Diego, Calif.).

[3] = system: OCI-Ly10 human DLBCL cells; assay: OCI-Ly10 anti-proliferative activity (Resazurin); type: cell-based; conditions: OCI-Ly10 cells, 72 h compound treatment, Resazurin, read-out: Proliferation Assay OCI-Ly10-20% FBS
Description: Compounds were assayed for effects on the growth of OCI-Ly10 human DLBCL cells that are dependent on NFκB signalling. […] Cells were then plated at 7.5×10^3 cells per well in 96-well plates in varying concentrations of compound and incubated for 72 h at 37° C. An additional plate of cells to be used as the Day 0 read was seeded without compound addition, Resazurin was added to each well, incubated for 5 h and the fluorescence measured at 590 nm. After 72 h of compound treatment, Resazurin was added to each well of the compound treated plates, incubated for 5 h and the fluorescence measured at 590 nm. The IC50 was then calculated by subtracting the average Day 0 value from each well value from the treated plates, each treatment was then calculated as a percentage of the DMSO control and the percentages plotted against the inhibitor concentration to estimate the IC50 from log[Inhibitor] vs response using the Variable Slope model in Graphpad prism from Graphpad software (San Diego, Calif.).

T1 sequence (Q06187 whole entry): as the sequence (Q06187 whole entry C481S) above, with S481C counted along it

SMILES | IC50 [1] [nM] | IC50 [2] [nM] | IC50 (Recombinant EGFR) [nM] | IC50 ([3]; Homo sapiens, OCI-Ly10, 72 h) [nM] | IC50 [3] [nM]
COc1ccc(F)cc1C(=O)NCc1ccc(-c2nn(C3CCOCC3)c(N)c2C(N)=O)c(F)c1 [Example 106, 5-amino-3-[2-fluoro-4-[[(5-fluoro-2-methoxy-benzoyl)amino]methyl]phenyl]-1-tetrahydropyran-4-yl-pyrazole-4-carboxamide] | < 10 | < 10 | > 10000 | 100 to 1000 | 
COc1ccc(F)cc1C(=O)NCc1ccc(-c2nn(C(C(C)(C)C)C(F)(F)F)c(N)c2C(N)=O)cc1 (centres unmarked) [Example 194, 5-amino-1-[2,2-dimethyl-1-(trifluoromethyl)propyl]-3-[4-[[(5-fluoro-2-methoxy-benzoyl)amino]methyl]phenyl]pyrazole-4-carboxamide] | 10 to 100 | 10 to 100 | 1000 to 10000 | 100 to 1000 | 
COc1ccccc1C(=O)NCc1ccc(-c2nn(C3CCOCC3)c(N)c2C(N)=O)c(F)c1 [Example 99, 5-amino-3-[2-fluoro-4-[[(2-methoxybenzoyl)amino]methyl]phenyl]-1-tetrahydropyran-4-yl-pyrazole-4-carboxamide] | 10 to 100 | < 10 | > 10000 | 100 to 1000 | 
COc1ccc(F)cc1C(=O)NCc1ccc(-c2nn(C(C3CCCCC3)C(F)(F)F)c(N)c2C(N)=O)cc1 (centres unmarked) [Example 192, 5-amino-1-(1-cyclohexyl-2,2,2-trifluoro-ethyl)-3-[4-[[(5-fluoro-2-methoxy-benzoyl)amino]methyl]phenyl]pyrazole-4-carboxamide] | 10 to 100 | 10 to 100 | 1000 to 10000 | 100 to 1000 | 
COc1ccccc1C(=O)NCc1cc(F)c(-c2nn(C3CCOCC3)c(N)c2C(N)=O)cc1F [Example 148, 5-amino-3-[2,5-difluoro-4-[[(2-methoxybenzoyl)amino]methyl]phenyl]-1-tetrahydropyran-4-yl-pyrazole-4-carboxamide] | 10 to 100 | < 10 | > 10000 | 100 to 1000 | 
COc1ccccc1C(=O)NCc1ccc(-c2nn([C@H]3CCOC3)c(C(F)F)c2C(N)=O)cc1 [Example 112, 5-(difluoromethyl)-3-[4-[[(2-methoxybenzoyl)amino]methyl]phenyl]-1-[(3S)-tetrahydrofuran-3-yl]pyrazole-4-carboxamide] | 100 to 1000 | 100 to 1000 | > 10000 | > 10000 | 
COc1ccc(F)cc1C(=O)NCc1c(F)cc(-c2nn(C3CCOCC3)c(N)c2C(N)=O)cc1F [Example 133, 5-amino-3-[3,5-difluoro-4-[[(5-fluoro-2-methoxy-benzoyl)amino]methyl]phenyl]-1-tetrahydropyran-4-yl-pyrazole-4-carboxamide] | 100 to 1000 | 10 to 100 | > 10000 |  | 
COc1ccccc1C(=O)NC(CO)c1ccc(-c2nn(C3CCCC3)c(N)c2C(N)=O)cc1C (centres unmarked) [Example 185, 5-amino-1-cyclopentyl-3-[4-[2-hydroxy-1-[(2-methoxybenzoyl)amino]ethyl]-3-methyl-phenyl]pyrazole-4-carboxamide] | 1000 to 10000 | 1000 to 10000 | 1000 to 10000 |  | 
COc1ccccc1C(=O)NCc1ccc(-c2nn(C3CCC(C)(O)CC3)c(N)c2C(N)=O)cc1 (single isomer, unassigned) [Example 27, 5-Amino-1-(4-hydroxy-4-methyl-cyclohexyl)-3-[4-[[(2-methoxybenzoyl)amino]methyl]phenyl]pyrazole-4-carboxamide] | < 10 |  | 100 to 1000 |  | 10 to 100
COc1ccccc1C(=O)NCc1c(F)cc(-c2nn(C3CCOCC3)c(N)c2C(N)=O)cc1F [Example 132, 5-amino-3-[3,5-difluoro-4-[[(2-methoxybenzoyl)amino]methyl]phenyl]-1-tetrahydropyran-4-yl-pyrazole-4-carboxamide] | 100 to 1000 | 10 to 100 | > 10000 |  | 
COc1ccc(F)cc1C(=O)NCc1ccc(-c2nn(C(C3CC3)C(F)(F)F)c(N)c2C(N)=O)cc1 (centres unmarked) [Example 188, 5-amino-1-(1-cyclopropyl-2,2,2-trifluoro-ethyl)-3-[4-[[(5-fluoro-2-methoxy-benzoyl)amino]methyl]phenyl]pyrazole-4-carboxamide] | < 10 | < 10 | 1000 to 10000 |  | 
CNC(=O)c1c(-c2ccc(CNC(=O)c3ccccc3OC)cc2)nn(C2CCCC2)c1N [Example 69, 5-amino-1-cyclopentyl-3-[4-[[(2-methoxybenzoyl)amino]methyl]phenyl]-N-methyl-pyrazole-4-carboxamide] | > 10000 |  |  |  | 

The next lines start with the values.

IC50 [1] [nM] | IC50 [2] [nM] | IC50 (Recombinant EGFR) [nM] | IC50 ([3]; Homo sapiens, OCI-Ly10, 72 h) [nM] | IC50 [3] [nM] | SMILES
< 10 | < 10 | 100 to 1000 | 10 to 100 |  | COc1ccccc1C(=O)NCc1ccc(-c2nn(C3Cc4ccccc4C3)c(N)c2C(N)=O)cc1 [Example 52, 5-amino-1-indan-2-yl-3-[4-[[(2-methoxybenzoyl)amino]methyl]phenyl]pyrazole-4-carboxamide]
10 to 100 | < 10 | 1000 to 10000 | 100 to 1000 |  | COc1ccccc1C(=O)NCc1ccc(-c2nn(-c3cccc(C(F)(F)F)c3)c(N)c2C(N)=O)cc1 [Example 16, 5-Amino-3-[4-[[(2-methoxybenzoyl)amino]methyl]phenyl]-1-[3-(trifluoromethyl)phenyl]pyrazole-4-carboxamide]
< 10 | < 10 | 100 to 1000 | 10 to 100 |  | COc1ccccc1C(=O)NCc1ccc(-c2nn(-c3ccccc3F)c(N)c2C(N)=O)cc1 [Example 39, 5-amino-1-(2-fluorophenyl)-3-[4-[[(2-methoxybenzoyl)amino]methyl]phenyl]pyrazole-4-carboxamide]
< 10 | < 10 | 1000 to 10000 | 10 to 100 |  | COc1ccccc1C(=O)NCc1ccc(-c2nn(-c3ccc(F)cc3F)c(N)c2C(N)=O)cc1 [Example 15, 5-Amino-1-(2,4-difluorophenyl)-3-[4-[[(2-methoxybenzoyl)amino]methyl]phenyl]pyrazole-4-carboxamide]
> 10000 |  | > 10000 |  |  | COc1ccccc1C(=O)NCc1ccc(-c2nn(C[C@H]3CCCNC3)c(N)c2C(N)=O)cc1 [Example 42, 5-amino-3-[4-[[(2-methoxybenzoyl)amino]methyl]phenyl]-1-[[(3S)-3-piperidyl]methyl]pyrazole-4-carboxamide]
100 to 1000 |  |  |  |  | COc1ccccc1C(=O)NCc1ccc(-c2nn(-c3nc(C)cs3)c(N)c2C(N)=O)cc1 [Example 67, 5-amino-3-[4-[[(2-methoxybenzoyl)amino]methyl]phenyl]-1-(4-methylthiazol-2-yl)pyrazole-4-carboxamide]
< 10 | < 10 |  | 100 to 1000 |  | COc1ccccc1C(=O)NCc1ccc(-c2nn([C@@H]3CCC[C@H]3O)c(N)c2C(N)=O)cc1 (relative stereo) [Example 2, 5-Amino-1-[(1R*,2R*)-2-hydroxycyclopentyl]-3-[4-[[(2-methoxybenzoyl)amino]methyl]phenyl]pyrazole-4-carboxamide]
100 to 1000 | 100 to 1000 |  | 1000 to 10000 |  | COc1ccccc1C(=O)NCc1ccc(-c2nn(C3CCCC3)c(Nc3ccccc3)c2C(N)=O)cc1 [Example 56, 5-anilino-1-cyclopentyl-3-[4-[[(2-methoxybenzoyl)amino]methyl]phenyl]pyrazole-4-carboxamide]
